Measured values from ChEMBL document CHEMBL4041476, “Design, selective alkylation and X-ray crystal structure determination of dihydro-indolyl-1,2,4-triazole-3-thione and its 3-benzylsulfanyl analogue as potent anticancer agents” (Eur J Med Chem, 2017).
Values after ≈ are worked out from the molar mass of the structure shown.

Assays:
[1] = system: MCF7; assay: Antiproliferative activity against human MCF7 cells after 48 hrs by SRB assay; assay type: functional, cell-based; details: MCF7, 48 h
[2] = system: HepG2; assay: Antiproliferative activity against human HepG2 cells after 48 hrs by SRB assay; assay type: functional, cell-based; details: HepG2, 48 h

IC50 [1]	IC50 [2]	SMILES
13.8 µg/mL (≈ 63.8 µM)	15.9 µg/mL (≈ 73.5 µM)	S=c1nc(-c2cc3ccccc3[nH]2)[nH][nH]1
> 100 µg/mL	> 100 µg/mL	CC(=O)N[C@@H]1[C@@H](OC(C)=O)[C@H](OC(C)=O)[C@@H](COC(C)=O)O[C@H]1n1nc(-c2cc3ccccc3[nH]2)nc1SCc1ccccc1
15.5 µg/mL (≈ 44.7 µM)	15.9 µg/mL (≈ 45.9 µM)	C=CCn1nc(-c2cc3ccccc3[nH]2)nc1SCc1ccccc1
14.8 µg/mL (≈ 37.3 µM)	16.3 µg/mL (≈ 41.1 µM)	c1ccc(CSc2nc(-c3cc4ccccc4[nH]3)n(Cc3ccccc3)n2)cc1
4.53 µg/mL (≈ 14.8 µM)	3.58 µg/mL (≈ 11.7 µM)	c1ccc(CSc2nc(-c3cc4ccccc4[nH]3)n[nH]2)cc1
16 µg/mL (≈ 25.1 µM)	16.1 µg/mL (≈ 25.3 µM)	CC(=O)OC[C@H]1O[C@@H](n2nc(SCc3ccccc3)nc2-c2cc3ccccc3[nH]2)[C@H](OC(C)=O)[C@@H](OC(C)=O)[C@@H]1OC(C)=O
10.8 µg/mL (≈ 27.2 µM)	17.9 µg/mL (≈ 45.1 µM)	c1ccc(CSc2nc(-c3cc4ccccc4[nH]3)nn2Cc2ccccc2)cc1
16.2 µg/mL (≈ 44.4 µM)	11.5 µg/mL (≈ 31.6 µM)	OCCCn1nc(SCc2ccccc2)nc1-c1cc2ccccc2[nH]1
14.6 µg/mL (≈ 41.7 µM)	12.1 µg/mL (≈ 34.5 µM)	OCCn1nc(-c2cc3ccccc3[nH]2)nc1SCc1ccccc1
4 µg/mL (≈ 7.36 µM)	4 µg/mL (≈ 7.36 µM)	COc1cccc2c1C(=O)c1c(O)c3c(c(O)c1C2=O)C[C@@](O)(C(=O)CO)C[C@@H]3O[C@H]1C[C@H](N)[C@H](O)[C@H](C)O1 [DOXORUBICIN]
15.9 µg/mL (≈ 25 µM)	16.6 µg/mL (≈ 26.1 µM)	CC(=O)N[C@@H]1[C@@H](OC(C)=O)[C@H](OC(C)=O)[C@@H](COC(C)=O)O[C@H]1n1nc(SCc2ccccc2)nc1-c1cc2ccccc2[nH]1
